Measured values taken from patent US10907219B2, “Compositions and methods for controlling cellular function” (STC.UNM, priority 2014, dated 2021).
Entries after “also recorded” stand apart in the source; their conditions may differ.

Columns and labels:
[1] = Photo-cleavage (uncaging) of caged ABA (HPLC); format: physicochemical; conditions: for formation of 2-trans ABA isomer on irradiation: 365 nm photo-cleavage condition; for photo-cleavage by 365 nm light / photo-cleavage by 405 nm light: 10 μM in DMSO
Protocol: HPLC analysis: Reversed-phase HPLC was performed on an ACCLAIM 120 (4.6×100 mm) C18 column (Thermo Fisher Scientific, Waltham, Mass.) with an ULTIMATE 3000 pump system, including a Variable Wavelength Detector 3100, Degasser 1210, and Autosampler SPS 3000 (Thermo Fisher Scientific, Waltham, Mass.). A mixture of water and acetonitrile containing 0.1% TFA was used as the eluent. Absorbance at 250 nm was used to monitor the elution of the molecules. The method used an increase in acetonitrile from 5% to 95% over 15 minutes to elute the molecules at a flow rate of 0.7 mL/min. The peaks for the molecules were integrated by using Chromeleon software (Thermo Fisher Scientific, Waltham, Mass.). The molar absorptivity of both free and caged ABA at 250 nm were measured, which was used to calculate the concentration of each species from the intensity of absorbance at 250 nm. The relative concentration of each compound was used to calculate the percent concentration of free ABA relative to the concentration of total ABA species (both caged and uncaged).
Photo-irradiation: Irradiation at 365 nm was performed with an Axio Observer (Carl Zeiss AG, Oberkochen, Germany) microscope with an HBO103 W/2 mercury arc lamp (Carl Zeiss AG, Oberkochen, Germany). Irradiation was performed by using a DAPI filter (Carl Zeiss AG, Oberkochen, Germany), set with peak excitation at 365 nm (power density: 23 mW cm^2) and a spectral width of 50 nm. No objective lens was used for whole-well irradiation, which created an area of illumination that nearly completely covered one well of a 24-well plate. Light was transmitted through the bottom of the well of polystyrene plate. Irradiation at 405 nm was performed by using an adjustable focus violet purple laser pointer (LazerPoint SKU 0733579), with an excitation wavelength of 405 nm and 1000 mW intensity positioned 8 cm above the bottom of either a 96-well or 24-well plate and irradiated through the polystyrene lid. All samples for HPLC analysis were irradiated in DMSO to prevent evaporation of solvent and changes in sample concentration. Irradiation of cell cultures was performed in 24-well plates containing culture medium (500 μL).

[2] = test system: CHO cells transfected with ABA-inducible luciferase constructs; assay: ABA-inducible luciferase assay; format: cell-based; conditions: for stability in cell culture: 12 or 24 h, luciferase assay
Protocol: The cellular stability of ABA-DMNB was explored further using a more sensitive and quantitative luciferase assay system, which employs an inducible luciferase construct (FIG. 21A). CHO cells were transfected with the ABA-inducible luciferase constructs for 24 hours and then 10 μM of ABA-DMNB was added and incubated in dark for 12 or 24 hours. Cells were then harvested and analyzed by using the luciferase assay.
Cell culture and transfection: CHO cells and HEK 293T EGFP reporter cells (provided by Dr. Gerald R. Crabtree) were cultured in Dulbecco's modified Eagle's medium (DMEM; GIBCO, Life Technologies, Carlsbad, Calif.) with 10% FBS (Atlanta Biologicals, Inc., Norcross, Ga.), 1×GlutaMAX (GIBCO, Life Technologies, Carlsbad, Calif.), and 1× penicillin/streptomycin (Pen/Strep; GIBCO, Life Technologies, Carlsbad, Calif.). 15,000-50,000 ells were plated in a 24-well or 8-well plate for 24 hours before transfection. DNA constructs (0.1 μg-0.5 μg) were added to 50× (v/w) Opti-MEM (GIBCO, Life Technologies, Carlsbad, Calif.), and then 3× (v/w) PEI (Polysciences, Inc., Warrington, Pa.) was mixed with the DNA. The mixture was incubated for 20 minutes at room temperature before adding it to cell cultures. The cells were grown for one day after transfection before experiments were performed.
Luciferase assay: Cells from 24-well plates were washed with PBS and lysed with Reporter lysis buffer (100 μL; Promega Corp., Madison, Wis.) by incubation and gentle shaking at room temperature for 10 minutes after a freeze/thaw cycle. Cell lysates were centrifuged at 15,000 rpm in an Eppendorf 5424 Centrifuge with lysate used for the luciferase assay (25 μL). Luciferase assay reagent (100 μL, 5 mg luciferin (Gold Biotechnology, Inc., St. Louis, Mo.) and coenzyme A (7 mg; Sigma-Aldrich, St. Louis, Mo.) in Luciferase Assay Buffer (33 mL, 20 mM tricine, 1.07 mM (MgCO3)4Mg(OH)2.5 H2O, 2.67 mM MgSO4, 0.1 mM EDTA, 33.3 mM dithiothreitol, and 0.53 mM ATP in water) was added to lysates. Luciferase assay reagent was added through the auto-injector of a GLOMAX-Multi Detection System (Promega Corp., Madison, Wis.), and the signal was detected by the instrument with a 1.5 s delay and 0.5 s integration time. All experiments were conducted in triplicate.

[3] = test system: myr-ABI and EGFP-PYL-Tiam1 in CHO cells; assay: Light-induced ruffling via Tiam1 membrane localization / Rac1 signaling (fixed cells); format: cell-based; conditions: for percentage of cells displaying ruffling: compared with ABA-DMNB without irradiation or no drug
Source text: Next, we examined the induction of ruffle formation through the activation of the Rac1 signaling pathway in order to determine if the light-activated ABA system can be used to regulate a complex biological process. The GTP exchange factor, Tiam1, when presents at the cell membrane, activates Rac1 to initiate a signaling pathway that leads to cytoskeletal remodeling that forms filopodia and/or lamellipodia. To activate Rac1 signaling and induce membrane ruffling, light and ABA-DMNB were used to control membrane localization of Tiam1 (FIG. 23A). A construct encoding a membrane localized ABI (myr-ABI) and one expressing a constitutively active Tiam1 fused to EGFP and PYL were employed for this purpose (FIG. 23A). Following the transfection of CHO cells with both plasmids for 24 hours, 10 μM of ABA-DMNB was added and the treated cell culture was irradiated with 365 nm light from a fluorescent microscope. Cells were then fixed on slides and analyzed under a fluorescence microscope. […] Some background ruffling when overexpressing constitutively active Tiam1 was observed even when no drug was added.
Slide preparation: Cells were grown on glass coverslips in 24-well plates. The coverslips were washed with phosphate-buffered saline (PBS) and fixed with 4% paraformaldehyde (PFA, 300 μL, prepared in PBS) at room temperature for 20 min. The cells were then washed twice with PBS and incubated with 1×DAPI in the dark at the room temperature for 5 min. After a final wash with PBS, the coverslips were mounted on a glass slide with VECTASHIELD (Vector Laboratories, Inc., Burlingame, Calif.) mounting media and allowed to stand for two hours in the dark before imaging.
Statistical analysis of cell population: Cell were categorized as displaying nuclear export of EGFP when the fluorescent intensity of the nucleus was less than 60% of the intensity of the cytoplasm. […] Cells were counted from three separate experiments, with N>50 for each experiment.

| formation of isomerized ABA on irradiation ([1]; 405 nm uncaging) | SMILES | formation of 2-trans ABA isomer on irradiation [1] | luciferase expression ([2]; not irradiated, twelve hours after addition) | percentage of cells displaying ruffling ([3]; not irradiated) | photo-cleavage by 365 nm light [1] | photo-cleavage by 405 nm light [1] | irradiation time to complete cleavage ([1]; 405 nm light) | stability in cell culture ([2]; 10 μM, dark) | Rac1 signaling activation/ruffle formation ([3]; 10 μM, 405 nm light irradiation, fixed CHO cells) | irradiation time after which free ABA is regenerated ([1]; 10 μM and 100 μM, 365 nm UV light) | irradiation time to regenerate free ABA ([1]; 100 μM, 365 nm light) | luciferase expression ([2]; 10 μM, dark, 12 hours) | luciferase expression ([2]; 10 μM, dark, 24 hours) | percentage of cells displaying ruffling ([3]; 10 μM, 365 nm irradiation) |
| --- | --- | --- | --- | --- | --- | --- | --- | --- | --- | --- | --- | --- | --- | --- |
| – | CC1=CC(=O)CC(C)(C)C1(O)/C=C/C(C)=C\C(=O)O (stereo not drawn) [ABA, abscisic acid, reference compound] | very little 2-trans isomer was produced | induced luciferase expression | higher percentage of ruffled cell; also recorded: greater percentage of cells displaying ruffling | – | – | – | – | – | – | – | – | – | – |
| isomerized ABA was also produced | CCN(CC)c1ccc2c(COC(=O)/C=C(C)\C=C\[C@@]3(O)C(C)=CC(=O)CC3(C)C)cc(=O)oc2c1 [ABA-DEACM] | – | – | – | cannot be cleaved effectively under 365 nm light; also recorded: cannot be cleaved efficiently by 365 nm light | cleaved rapidly to give ABA within a few minutes | ≤ 4 min | stable chemically and in cell culture | Rac1 signaling activation/ruffle formation in cells | – | – | – | – | – |
| – | COc1cc(COC(=O)/C=C(C)\C=C\[C@@]2(O)C(C)=CC(=O)CC2(C)C)c([N+](=O)[O-])cc1OC [ABA-DMNB] | near equal amount | – | – | rapidly regenerated from the photo-uncaging of ABA-DMNB within a min | cannot efficiently uncage | – | relatively stable under the cell culture condition | – | 120 s | ≤ 2 min | very little luciferase expression | only a minimal level of luciferase was induced | higher percentage of ruffled cell; also recorded: greater percentage of cells displaying ruffling |
